Test [1] deals with HPAC (homozygous mutant KRAS G12D human pancreatic cell line). Nature of the test: KRAS 3D-Cell Proliferation Assay, HPAC (Example 503). The test is classed as cell-based. The settings on record: Homo sapiens, 168 h, HPAC 3D culture, 7 days, CellTiter-Glo 3D, read-out: Prolif HPAC 3D ATP IC50. How it is done: (§1) Example 503: KRAS 3D-Cell Proliferation Assays. Cellular potencies of compounds are assessed by evaluating inhibition of proliferation in 3D cultures of homozygous mutant KRAS G12D human pancreatic cell lines (AsPC-1 and HPAC) as compared to a KRAS wild type human lung adenocarcinoma cell line (PC-9 and/or H1975). Cells are seeded into 384-well black round-bottom, ultra-low attachment assay plates in 50 uL cell growth medium (RPMI-1640 with 10% fetal bovine serum and 2 mM L-glutamine). After overnight incubation at 37° C. and 5% CO2, compounds solubilized in DMSO are added as dilution series to the wells in a total volume of 150 nL (0.3% DMSO final). The cells are incubated for 7 days at 37° C. and 5% CO2. Cell proliferation is quantitated by addition of 40 uL/well of CellTiter-GloÒ 3D (Promega), and the well contents are mixed 20× at high speed using liquid handling automation workstation (Bravo with 384-well head) and centrifuged at 1500 rpm for 2 minutes to eliminate bubbles. This reagent in combination with mechanical disruption releases the cellular ATP to promote activity in a luciferase-based enzyme/substrate chemiluminescent detection system. After a 30-minute incubation under ambient conditions with shaking and an additional 10 minutes without shaking, the luminescence is read on a plate reader (e.g., EnVision [PerkinElmer]). The results are normalized to percent inhibition based on the following control samples: DMSO (0% inhibition) and 1 μM staurosporine (100% inhibition). The normalized luminescence results are plotted against compound concentration, and the data are fit to a 4-parameter Hill equation to determine the IC50 values.

For test [2], the system named is H1975 (KRAS wild type human lung adenocarcinoma cell line). Put plainly: KRAS 3D-Cell Proliferation Assay, H1975 (Example 503). The test is classed as cell-based. The settings on record: Homo sapiens, NCI-H1975, 168 h, H1975 3D culture, 7 days, CellTiter-Glo 3D; read-out: Prolif H1975 3D ATP IC50. How it is done: as §1

Like-named read-outs stand apart in the source and are kept apart here.

Regarding `Cc1c(F)c(N)cc(-c2nc3c4c(nc(OC[C@@H](F)CN5CC6(COC6)C5)nc4c2F)N2C[C@H]4CC[C@H](N4)[C@H]2[C@H](C)O3)c1C(F)(F)F` [Compound 145], the IC50 in test [1] (HPAC) was 68.7 nM; in test [2], 5120 nM.
With `Cc1cc(N)cc(-c2nc3c4c(nc(OC[C@@H]5CC[C@H]6COCCN65)nc4c2F)N2C[C@H]4CC[C@H](N4)[C@H]2[C@H](C)O3)c1C(F)(F)F` [Compound 67, 3-((5S,5aS,6S,9R)-1-Fuoro-1-(((6S,8aS)-hexahydro-1H-pyrrolo[2,1-c][1,4]oxazin-6-yl)methoxy)-5-methyl-5a,6,7,8,9,10-hexahydro-5H-4-oxa-3,10a,11,13,14-pentaaza-6,9-methanonaphtho[1,8-ab]heptalen-2-yl)-5-methyl-4-(trifluoromethyl)aniline], the IC50 in test [1] (HPAC) turned out to be 2.79 nM; in test [2], 639 nM.
On to `Cc1nc(N)c(F)c(-c2nc3c4c(nc(OC[C@@]56CCCN5C[C@H](F)C6)nc4c2F)N2C[C@H]4CC[C@H](N4)[C@H]2[C@H](C(F)(F)F)O3)c1C(F)(F)F` [Compound 256, 3-Fluoro-4-((5R,5aS,6S,9R)-1-fluoro-12-(((2R,7aS)-2-fluorotetrahydro-1H-pyrrolizin-7a(5H)-yl)methoxy)-5-(trifluoromethyl)-5a,6,7,8,9,10-hexahydro-5H-4-oxa-3,10a,11,13,14-pentaaza-6,9-methanonaphtho[1,8-ab]heptalen-2-yl)-6-methyl-5-(trifluoromethyl)pyridin-2-amine], for which the IC50 turned out to be 13.9 nM in test [1] and 93.4 nM in test [2].
Turning to `Cc1c(F)c(N)cc(-c2nc3c4c(nc(OCCCN5CCOCC5)nc4c2F)N2C[C@H]4CC[C@H](N4)[C@H]2[C@H](C)O3)c1C(F)(F)F` [Compound 138, 2-Fluoro-5-((5S,5aS,6S,9R)-1-fluoro-5-methyl-12-(3-morpholinopropoxy)-5a,6,7,8,9,10-hexahydro-5H-4-oxa-3,10a,11,13,14-pentaaza-6,9-methanonaphtho[1,8-ab]heptalen-2-yl)-3-methyl-4-(trifluoromethyl)aniline], the IC50 in test [1] (HPAC) was found to be 15.1 nM; in test [2], 2550 nM.
Turning to `Cc1c(F)c(N)cc(-c2nc3c4c(nc(OC[C@]56C[C@H](F)CN5C[C@H](F)C6)nc4c2F)N2C[C@H]4CC[C@H](N4)[C@H]2[C@H](C)O3)c1C(F)(F)F` [Compound 141, 5-((5S,5aS,6S,9R)-12-(((2R,6S,7ar)-2,6-Difluorotetrahydro-1H-pyrrolizin-7a(5H)-yl)methoxy)-1-fluoro-5-methyl-5a,6,7,8,9,10-hexahydro-5H-4-oxa-3,10a,11,13,14-pentaaza-6,9-methanonaphtho[1,8-ab]heptalen-2-yl)-2-fluoro-3-methyl-4-(trifluoromethyl)aniline], the IC50 came out at 6.92 nM in test [1] (HPAC) and 6240 nM in test [2].
On to `Cc1nc(N)cc(-c2nc3c4c(nc(OCC5(CN6CC7(CCCO7)C6)CC5)nc4c2F)N2C[C@H]4CC[C@H](N4)[C@H]2[C@H](C)O3)c1C(F)(F)F` [Compound 281, 4-((5S,5aS,6S,9R)-12-((1-((5-oxa-2-azaspiro[3.4]octan-2-yl)methyl)cyclopropyl)methoxy)-1-fluoro-5-methyl-5a,6,7,8,9,10-hexahydro-5H-4-oxa-3,10a,11,13,14-pentaaza[6,9]methanonaphtho[1,8-ab]heptalene-2-yl)-6-methyl-5-(trifluoromethyl)pyridin-2-amine], for which the IC50 is 8.6 nM in test [1] (HPAC) and 2430 nM in test [2].
For `Cc1c(F)c(N)cc(-c2nc3c4c(nc(OCC5(CN6CCO[C@H](CF)C6)CC5)nc4c2F)N2C[C@H]4CC[C@H](N4)[C@H]2[C@H](C)O3)c1C(F)(F)F` [Compound 171, 2-Fluoro-5-((5S,5aS,6S,9R)-1-fluoro-12-((1-(((S)-2-(fluoromethyl)morpholino)methyl)cyclopropyl)methoxy)-5-methyl-5a,6,7,8,9,10-hexahydro-5H-4-oxa-3,10a,11,13,14-pentaaza-6,9-methanonaphtho[1,8-ab]heptalen-2-yl)-3-methyl-4-(trifluoromethyl)aniline] the same measures were 1.33 nM and 904 nM.
The like results for `C[C@@H]1Oc2nc(-c3cc(N)c(=O)n(C)c3C(F)(F)F)c(F)c3nc(OC[C@@]45CCCN4C[C@H](F)C5)nc(c23)N2C[C@H]3CC[C@H](N3)[C@@H]12` [Compound 184, 3-Amino-5-((5S,5aS,6S,9R)-1-fluoro-12-(((2R,7aS)-2-fluorotetrahydro-1H-pyrrolizin-7a(5H)-yl)methoxy)-5-methyl-5a,6,7,8,9,10-hexahydro-5H-4-oxa-3,10a,11,13,14-pentaaza-6,9-methanonaphtho[1,8-ab]heptalene-2-yl)-1-methyl-6-(trifluoromethyl)pyridin-2(1H)-one] were, in that order, 147 nM and 20000 nM.
Take `Cc1c(F)c(N)cc(-c2nc3c4c(nc(OCC5(CC(F)F)CCCN5C)nc4c2F)N2CC4CCC(N4)C2C(C)O3)c1C(F)(F)F` (single isomer, unassigned) [150 (isomer 2)]: the IC50 in test [1] (HPAC) came to 23.9 nM; in test [2], 2850 nM.
The like results for `Cc1c(F)c(N)cc(-c2nc3c4c(nc(OC[C@@]56CCCN5CCN(C)C6=O)nc4c2F)N2C[C@H]4CC[C@H](N4)[C@H]2[C@H](C)O3)c1C(F)(F)F` (single isomer, unassigned) [137 (isomer 1)] were, in that order, 127 nM and 20000 nM.
As to `C[C@@H]1Oc2nc(-c3cccc4sc(N)nc34)c(F)c3nc(OC[C@@]45CCCN4C[C@H](F)C5)nc(c23)N2C[C@H]3CC[C@H](N3)[C@@H]12` [Compound 116, 4-((5S,5aS,6S,9R)-1-fluoro-12-(((2R,7aS)-2-fluorotetrahydro-1H-pyrrolizin-7a(5H)-yl)methoxy)-5-methyl-5a,6,7,8,9,10-hexahydro-5H-4-oxa-3,10a,11,13,14-pentaaza-6,9-methanonaphtho[1,8-ab]heptalen-2-yl)benzo[d]thiazol-2-amine], the IC50 in test [1] (HPAC) is 513 nM; in test [2] it was 20000 nM.
The like results for `Cc1nc(N)c(C)c(-c2nc3c4c(nc(OC[C@@]56CCCN5C[C@H](F)C6)nc4c2F)N2C[C@H]4CC[C@H](N4)[C@H]2[C@H](C)O3)c1C(F)(F)F` [Compound 198, 4-((5S,5aS,6S,9R)-1-Fluoro-12-(((2R,7aS)-2-fluorotetrahydro-1H-pyrrolizin-7a(5H)-yl)methoxy)-5-methyl-5a,6,7,8,9,10-hexahydro-5H-4-oxa-3,10a,11,13,14-pentaaza-6,9-methanonaphtho[1,8-ab]heptalen-2-yl)-3,6-dimethyl-5-(trifluoromethyl)pyridin-2-amine] were, in that order, 13 nM and 3720 nM.
On to `Cc1c(F)c(N)cc(-c2nc3c4c(nc(OC[C@@]56CCCN5C[C@H](F)C6)nc4c2F)N2C[C@H]4CC[C@H](N4)[C@H]2C(CF)O3)c1C(F)(F)F` (stereo partly drawn) [Compound 239, 2-Fluoro-5-((5aS,6S,9R)-1-fluoro-5-(fluoromethyl)-12-(((2R,7aS)-2-fluorotetrahydro-1H-pyrrolizin-7a(5H)-yl)methoxy)-5a,6,7,8,9,10-hexahydro-5H-4-oxa-3,10a,11,13,14-pentaaza-6,9-methanonaphtho[1,8-ab]heptalen-2-yl)-3-methyl-4-(trifluoromethyl)aniline], for which the figures for the IC50 in test [1] (HPAC) and in test [2] were 33.4 nM and 569 nM, respectively.
For `C[C@@H]1Oc2nc(-c3cc(N)c(F)cc3CC(F)F)c(F)c3nc(OC[C@@]45CCCN4C[C@H](F)C5)nc(c23)N2C[C@H]3CC[C@H](N3)[C@@H]12` [Compound 187, 4-(2,2-Difluoroethyl)-2-fluoro-5-((5S,5aS,6S,9R)-1-fluoro-12-(((2R,7aS)-2-fluorotetrahydro-1H-pyrrolizin-7a(5H)-yl)methoxy)-5-methyl-5a,6,7,8,9,10-hexahydro-5H-4-oxa-3,10a,11,13,14-pentaaza-6,9-methanonaphtho[1,8-ab]heptalene-2-yl)aniline] the same measures were 34.8 nM and 18900 nM.
Regarding `Cc1c(F)c(N)cc(-c2nc3c4c(nc(OC[C@@]56CCCN5C[C@H](F)C6)nc4c2F)N2C[C@H]4CC[C@H](N4)[C@H]2[C@H](C)O3)c1S(C)(=O)=O` [Compound 180, 2-Fluoro-5-((5S,5aS,6S,9R)-1-fluoro-12-(((2R,7aS)-2-fluorotetrahydro-1H-pyrrolizin-7a(5H)-yl)methoxy)-5-methyl-5a,6,7,8,9,10-hexahydro-5H-4-oxa-3,10a,11,13,14-pentaaza-6,9-methanonaphtho[1,8-ab]heptalene-2-yl)-3-methyl-4-(methylsulfonyl)aniline], the IC50 in test [1] (HPAC) is 2000 nM; in test [2] it was 20000 nM.
